According to US10688111B2, “Liquid formulations of compounds active at sulfonylurea receptors” (Biogen Chesapeake LLC, priority 2008, dated 2020):
Converted amounts (≈) assume the structure as drawn.

Tests used:
[1] = Glibenclamide solubility in infusion fluids by HPLC, excess drug shaken 24 hours (Table 4); assay type: physicochemical; conditions: thermodynamic from solid, 24 hours ambient
Method: The solubility of glibenclamide was determined by high pressure liquid chromatography (HPLC) in a variety of infusion fluids. Excess glibenclamide was shaken with the vehicle for 24 hours at ambient temperature and the glibenclamide content of the supernatant determined by HPLC.
The following infusion vehicles were assessed in these experiments:
1.) 0.9% NaCl at the lowest end of the pH specification (pH 4.5) containing a 50-fold dilution of the PEG/ethanol/meglumine 10 mM pH 9.0 formulation.
2.) 0.9% NaCl at the lowest end of the pH specification (pH 4.5) containing a 50-fold dilution of the PEG/ethanol/diethanolamine 10 mM pH 9.0 formulation.
3.) 0.9% NaCl at the lowest end of the pH specification (pH 4.5) containing a 50-fold dilution of the PEG/ethanol/TRIS 10 mM pH 9.0 formulation.
4.) 0.9% NaCl at the lowest end of the pH specification (pH 4.5).
5.) 0.9% NaCl at the highest end of the pH specification (pH 7.0).
6.) 0.9% NaCl ‘as is’ (pH 5.8).
7.) 0.9% NaCl at the lowest end of the pH specification (pH 4.5) containing a 50-fold dilution of the PEG/ethanol formulation (without buffer or pH adjustment).
8.) 0.9% NaCl at the highest end of the pH specification (pH 7.0) containing a 50-fold dilution of the PEG/ethanol formulation (without buffer or pH adjustment).

[2] = Stability of glibenclamide injection formulations on storage; assay type: physicochemical; conditions: formulation with 5 mM meglumine at pH 9
Method: Glibenclamide stability was investigated by storing several formulations under different conditions for long periods of time. In particular, glibenclamide formulations suitable for injection were stored for up to six months and stability data for these formulations was obtained over that period of time.
This study assessed the relative stability of 4 batches of glibenclamide formulations suitable for injection. The following studies were conducted.
All storage cabinets were continually monitored for temperature and humidity using calibrated probes. After removal from long-term storage, all samples were stored at 2-8° C. protected from light while awaiting analysis.
At each time point, 2 vials of glibenclamide injections will be removed from the storage cabinet from the appropriate conditions and allowed to equilibrate to ambient temperature. This will be used to perform the analyses described above and will be stored under normal laboratory conditions throughout the duration of the analyses.
The formulations were inspected visually for appearance and for the presence of particulates. The pH of duplicate samples from separate vials was measured to determine formulation pH and to track changes, if any, over the course of time during the stability experiments.

[3] = pH after 50-fold dilution of glibenclamide 1 mg/ml concentrate into Hartmann's or NaCl; assay type: physicochemical; conditions: 1 mg/ml in PEG/Ethanol/Buffer (4/1/5)
Method: This was found even for experiments in which the concentration of buffer was reduced to 5 mM. In order to determine the final pH of diluted solutions resulting from high pH solutions having high concentrations of SUR-active compounds, measurements of the pH of glibenclamide solutions at various levels of dilution were made. […]

[4] = Precipitation on dilution of concentrated glibenclamide solutions; assay type: physicochemical
Method: This formulation may also include a buffer, such as meglumine or diethanolamine. This formulation may also include a surfactant; for example, this solution may include Tween 80 (e.g., less than about 1 ug/ml or less than about 1 ug/mg of glibenclamide). This formulation can be stored in a refrigerator (e.g., at about 2-8° C.) or can be stored at room temperature. This formulation is suitable for dilution; for example, it may be diluted 1:1, or 1:2 for use in bolus injections. This formulation may also be diluted by larger amounts of diluent, to 1:50 for example, for administration of glibenclamide as an infusion over an extended period of time. Dilution with a buffered solution allows the reduction of the solution pH to physiological levels without causing precipitation of glibenclamide. […] Experiments investigating the effect of dilution of relatively high concentrations of SUR-active compounds were performed. […] These solutions were diluted as follows with each of these diluents (0.9% NaCl and 5% glucose solutions): 1 in 2; 1 in 4; 1 in 5; 1 in 10; 1 in 20; and 1 in 50.

physchem = assay: physchem
Method: The solubility of glibenclamide was tested in various solutions and at various pH.

solubility at 24 h ([1]; 0.9% NaCl infusion fluid, pH 7.8, saline or isotonic, 0.9% NaCl 'as is' (pH 5.8), actual pH 7.80): 150 µg/mL (≈ 304 µM) | solubility at 24 h ([1]; 0.9% NaCl infusion fluid, saline or isotonic, 0.9% NaCl at pH 4.5, actual pH 7.72): 80 µg/mL (≈ 162 µM) | solubility at 24 h ([1]; 0.9% NaCl infusion fluid, saline or isotonic, 0.9% NaCl at pH 7.0, actual pH 7.75): 120 µg/mL (≈ 243 µM) | solubility at 24 h ([1]; pH 7.9, saline or isotonic, NaCl at pH 7.0 + PEG/EtOH, no buffer (50-fold dilution), actual pH 7.90): 140 µg/mL | solubility at 24 h ([1]; saline or isotonic, NaCl at pH 4.5 + PEG/EtOH, no buffer (50-fold dilution), actual pH 7.64): 100 µg/mL | solubility at 24 h ([1]; saline or isotonic, NaCl at pH 4.5 + PEG/EtOH/Diethanolamine 10 mM, pH 9.0 (50-fold dilution), actual pH 8.19): 130 µg/mL | solubility at 24 h ([1]; saline or isotonic, NaCl at pH 4.5 + PEG/EtOH/Meglumine 10 mM, pH 9.0 (50-fold dilution), actual pH 7.92): 150 µg/mL | solubility at 24 h ([1]; saline or isotonic, NaCl at pH 4.5 + PEG/EtOH/TRIS 10 mM, pH 9.0 (50-fold dilution), actual pH 7.89): 150 µg/mL | hydrolysis on storage ([2]; refrigerated samples stored at 2-8° C., FIG. 3A): hydrolysis was not seen | physical stability (drug in solution) on storage ([2]; stored at 2-8° C.): remained in solution | hydrolysis on storage ([2]; stored at elevated temperatures (25° C./60% RH, 40° C./75% RH), FIGS. 3B, 3C): some hydrolysis | pH after a 50-fold Dilution ([3]; Diethanolamine 5 mM pH 8, into Hartmann's pH 6.48 (Expt1)): 6.71 | pH after a 50-fold Dilution ([3]; Diethanolamine 5 mM pH 8, into Hartmann's pH 6.60): 7.99 | pH after a 50-fold Dilution ([3]; Diethanolamine 5 mM pH 8, into NaCl pH 4.59): 7.27 | pH after a 50-fold Dilution ([3]; Diethanolamine 5 mM pH 8, into NaCl pH 6.82): 8.32 | pH after a 50-fold Dilution ([3]; Diethanolamine 5 mM pH 8.5, into Hartmann's pH 6.48, Expt 2): 6.82 | pH after a 50-fold Dilution ([3]; Diethanolamine 5 mM pH 9, into Hartmann's pH 6.48 (Expt1)): 7.54 | pH after a 50-fold Dilution ([3]; Diethanolamine 5 mM pH 9, into Hartmann's pH 6.48, Expt 2): 7.29 | pH after a 50-fold Dilution ([3]; Diethanolamine 5 mM pH 9, into NaCl pH 6.82): 8.65 | pH after a 50-fold Dilution ([3]; Diethanolamine 5 mM pH 9.5, into Hartmann's pH 6.48 (Expt1)): 6.73 | pH after a 50-fold Dilution ([3]; Diethanolamine 5 mM pH 9.5, into Hartmann's pH 6.48, Expt 2): 8.37 | pH after a 50-fold Dilution ([3]; Diethanolamine 5 mM pH 9.5, into Hartmann's pH 6.60): 8.85 | pH after a 50-fold Dilution ([3]; Diethanolamine 5 mM pH 9.5, into NaCl pH 4.59): 8.72 | pH after a 50-fold Dilution ([3]; Diethanolamine 5 mM pH 9.5, into NaCl pH 6.82): 8.88 | pH after a 50-fold Dilution ([3]; Diethanolamine 5 mM pH 10, into Hartmann's pH 6.48): 8.46 | pH after a 50-fold Dilution ([3]; Diethanolamine 10 mM pH 9, into Hartmann's pH 6.48): 8.38 | pH after a 50-fold Dilution ([3]; Diethanolamine 10 mM pH 9, into NaCl pH 4.59): 8.46 | pH after a 50-fold Dilution ([3]; Diethanolamine 10 mM pH 10, into Hartmann's pH 6.48): 8.88 | pH after a 50-fold Dilution ([3]; Diethanolamine 10 mM pH 10, into NaCl pH 6.82): 9.31 | pH after a 50-fold Dilution ([3]; Meglumine 5 mM pH 8, into Hartmann's pH 6.48 (Expt1)): 6.66 | pH after a 50-fold Dilution ([3]; Meglumine 5 mM pH 8, into Hartmann's pH 6.60): 6.55 | pH after a 50-fold Dilution ([3]; Meglumine 5 mM pH 8, into NaCl pH 4.59): 6.56 | pH after a 50-fold Dilution ([3]; Meglumine 5 mM pH 8, into NaCl pH 6.82): 8.21 | pH after a 50-fold Dilution ([3]; Meglumine 5 mM pH 8.5, into Hartmann's pH 6.48, Expt 2): 6.64 | pH after a 50-fold Dilution ([3]; Meglumine 5 mM pH 9, into Hartmann's pH 6.48 (Expt1)): 6.8 | pH after a 50-fold Dilution ([3]; Meglumine 5 mM pH 9, into Hartmann's pH 6.48, Expt 2): 6.96 | pH after a 50-fold Dilution ([3]; Meglumine 5 mM pH 9, into NaCl pH 6.82): 8.40 | pH after a 50-fold Dilution ([3]; Meglumine 5 mM pH 9.5, into Hartmann's pH 6.48 (Expt1)): 6.93 | pH after a 50-fold Dilution ([3]; Meglumine 5 mM pH 9.5, into Hartmann's pH 6.48, Expt 2): 7.68 | pH after a 50-fold Dilution ([3]; Meglumine 5 mM pH 9.5, into Hartmann's pH 6.60): 8.49 | pH after a 50-fold Dilution ([3]; Meglumine 5 mM pH 9.5, into NaCl pH 4.59): 8.04 | pH after a 50-fold Dilution ([3]; Meglumine 5 mM pH 9.5, into NaCl pH 6.82): 8.71 | pH after a 50-fold Dilution ([3]; Meglumine 5 mM pH 10, into Hartmann's pH 6.48): 8.32 | pH after a 50-fold Dilution ([3]; Meglumine 10 mM pH 9, into Hartmann's pH 6.48): 7.37 | pH after a 50-fold Dilution ([3]; Meglumine 10 mM pH 9, into NaCl pH 4.59): 6.35 | pH after a 50-fold Dilution ([3]; Meglumine 10 mM pH 10, into Hartmann's pH 6.48): 8.98 | pH after a 50-fold Dilution ([3]; Meglumine 10 mM pH 10, into NaCl pH 6.82): 9.54 | precipitation on dilution ([4]; 2 mg/ml in 100 mM meglumine buffer with 0.9% NaCl or 5% glucose, diluted 1 in 2, 4, 5, 10, 20 and 50 with these diluents): no precipitation | behaviour of drug during and following dilution ([4]; Example 1 formulation (40% PEG 300, 10% Ethanol, 50% water, about pH 9, 1 mg/ml) diluted 1:50 with Hartman's solution): remained in solution | solubility (physchem; pH 5.3, aqueous buffer, Solubility): 10 µg/mL (≈ 20.2 µM) | solubility (physchem; pH 6.2, aqueous buffer, Solubility): 10 µg/mL (≈ 20.2 µM) | solubility (physchem; pH 6.6, water, Solubility): 70 µg/mL (≈ 142 µM) | solubility (physchem; pH 6.9): 60 µg/mL (≈ 121 µM) | solubility (physchem; pH 6.9, aqueous with cosolvent or surfactant or cyclodextrin, Solubility): 90 µg/mL (≈ 182 µM) | solubility (physchem; pH 7.1, aqueous buffer, Solubility): 10 µg/mL (≈ 20.2 µM) | solubility (physchem; pH 7.2, aqueous with cosolvent or surfactant or cyclodextrin, Solubility): 80 µg/mL (≈ 162 µM) | solubility (physchem; pH 7.6, aqueous with cosolvent or surfactant or cyclodextrin, Solubility): 600 µg/mL (≈ 1210 µM) | solubility (physchem; pH 7.7, aqueous with cosolvent or surfactant or cyclodextrin, Solubility): 10 µg/mL (≈ 20.2 µM) | solubility (physchem; pH 9.7): 860 µg/mL (≈ 1740 µM) | solubility (physchem; pH 9.7, aqueous buffer, Solubility): 860 µg/mL (≈ 1740 µM) | solubility (physchem; pH 9.7, aqueous with cosolvent or surfactant or cyclodextrin, Solubility): 18300 µg/mL (≈ 37000 µM) | solubility (physchem; pH 9.8): 11200 µg/mL (≈ 22700 µM) | solubility (physchem; pH 9.8, aqueous with cosolvent or surfactant or cyclodextrin, Solubility): 14600 µg/mL (≈ 29700 µM) | solubility (physchem; pH 10.1): 2350 µg/mL (≈ 4760 µM) | solubility (physchem; pH 10.1, aqueous buffer, Solubility): 2350 µg/mL (≈ 4760 µM) | solubility (physchem; pH 10.5): 15650 µg/mL (≈ 31700 µM) | solubility (physchem; pH 10.5, aqueous with cosolvent or surfactant or cyclodextrin, Solubility): 13400 µg/mL (≈ 27200 µM) | solubility (physchem; pH 10.7, aqueous buffer, Solubility): 8120 µg/mL (≈ 16400 µM) | solubility (physchem; pH 10.7, aqueous with cosolvent or surfactant or cyclodextrin, Solubility): 13900 µg/mL (≈ 28200 µM)
SMILES: COc1ccc(Cl)cc1C(=O)NCCc1ccc(S(=O)(=O)NC(=O)NC2CCCCC2)cc1 [Glibenclamide, N-p-(2-[5-Chloro-2-methoxybenzamido]ethyl) benzenesulfonyl-N′-cyclohexylurea]
